One test addresses T1, PKMYT1 (Homo sapiens, UniProt Q99640).
T1 sequence (Q99640 1-499): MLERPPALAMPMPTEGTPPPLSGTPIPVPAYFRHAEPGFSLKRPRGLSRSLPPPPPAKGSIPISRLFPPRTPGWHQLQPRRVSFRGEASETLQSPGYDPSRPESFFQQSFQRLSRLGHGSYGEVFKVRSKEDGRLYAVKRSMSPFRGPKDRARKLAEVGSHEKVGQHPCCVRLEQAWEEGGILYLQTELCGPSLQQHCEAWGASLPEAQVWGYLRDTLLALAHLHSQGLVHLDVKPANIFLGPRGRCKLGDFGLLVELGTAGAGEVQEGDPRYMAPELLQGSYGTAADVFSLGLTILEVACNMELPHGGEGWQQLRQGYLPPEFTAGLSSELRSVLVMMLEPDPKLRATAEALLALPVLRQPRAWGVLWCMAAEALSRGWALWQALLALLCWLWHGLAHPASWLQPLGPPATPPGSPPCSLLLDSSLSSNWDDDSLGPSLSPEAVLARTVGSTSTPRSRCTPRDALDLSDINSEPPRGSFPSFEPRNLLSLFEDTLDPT
To be noted: 1 μM; Run 1, Run 2.

The target in a further test is DAPK2 (Homo sapiens, UniProt Q9UIK4). Nature of the test: biochemical. To be noted: read-out: % enzyme activity, 1 μM; Run 1, Run 2.
Another test deals with T2, BRSK2 (Homo sapiens, UniProt Q8IWQ3).
T2 sequence (Q8IWQ3 1-736): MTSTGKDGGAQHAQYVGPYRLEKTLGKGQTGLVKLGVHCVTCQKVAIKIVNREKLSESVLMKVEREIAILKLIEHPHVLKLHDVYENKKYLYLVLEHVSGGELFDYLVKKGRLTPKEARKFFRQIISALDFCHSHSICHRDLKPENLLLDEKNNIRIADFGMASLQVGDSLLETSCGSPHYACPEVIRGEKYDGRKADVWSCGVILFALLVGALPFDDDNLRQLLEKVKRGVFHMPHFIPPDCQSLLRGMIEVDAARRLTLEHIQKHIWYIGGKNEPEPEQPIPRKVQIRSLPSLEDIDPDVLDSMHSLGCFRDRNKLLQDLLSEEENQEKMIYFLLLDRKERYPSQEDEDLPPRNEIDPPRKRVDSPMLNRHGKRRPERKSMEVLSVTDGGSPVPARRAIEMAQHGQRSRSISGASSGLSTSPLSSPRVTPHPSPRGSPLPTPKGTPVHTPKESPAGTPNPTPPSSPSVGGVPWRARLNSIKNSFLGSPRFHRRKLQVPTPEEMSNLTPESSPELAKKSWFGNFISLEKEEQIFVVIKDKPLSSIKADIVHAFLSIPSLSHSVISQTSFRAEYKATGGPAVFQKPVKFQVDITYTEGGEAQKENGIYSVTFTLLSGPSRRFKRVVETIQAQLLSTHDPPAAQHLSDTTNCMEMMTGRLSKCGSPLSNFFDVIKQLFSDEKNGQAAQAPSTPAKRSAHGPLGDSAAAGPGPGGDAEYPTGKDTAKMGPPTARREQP
Nature of the test: biochemical. To be noted: read-out: % enzyme activity, 1 μM; Run 1, Run 2.

For another test, the target named is T3, KSR1 (Homo sapiens, UniProt Q8IVT5).
T3 sequence (Q8IVT5 1-923): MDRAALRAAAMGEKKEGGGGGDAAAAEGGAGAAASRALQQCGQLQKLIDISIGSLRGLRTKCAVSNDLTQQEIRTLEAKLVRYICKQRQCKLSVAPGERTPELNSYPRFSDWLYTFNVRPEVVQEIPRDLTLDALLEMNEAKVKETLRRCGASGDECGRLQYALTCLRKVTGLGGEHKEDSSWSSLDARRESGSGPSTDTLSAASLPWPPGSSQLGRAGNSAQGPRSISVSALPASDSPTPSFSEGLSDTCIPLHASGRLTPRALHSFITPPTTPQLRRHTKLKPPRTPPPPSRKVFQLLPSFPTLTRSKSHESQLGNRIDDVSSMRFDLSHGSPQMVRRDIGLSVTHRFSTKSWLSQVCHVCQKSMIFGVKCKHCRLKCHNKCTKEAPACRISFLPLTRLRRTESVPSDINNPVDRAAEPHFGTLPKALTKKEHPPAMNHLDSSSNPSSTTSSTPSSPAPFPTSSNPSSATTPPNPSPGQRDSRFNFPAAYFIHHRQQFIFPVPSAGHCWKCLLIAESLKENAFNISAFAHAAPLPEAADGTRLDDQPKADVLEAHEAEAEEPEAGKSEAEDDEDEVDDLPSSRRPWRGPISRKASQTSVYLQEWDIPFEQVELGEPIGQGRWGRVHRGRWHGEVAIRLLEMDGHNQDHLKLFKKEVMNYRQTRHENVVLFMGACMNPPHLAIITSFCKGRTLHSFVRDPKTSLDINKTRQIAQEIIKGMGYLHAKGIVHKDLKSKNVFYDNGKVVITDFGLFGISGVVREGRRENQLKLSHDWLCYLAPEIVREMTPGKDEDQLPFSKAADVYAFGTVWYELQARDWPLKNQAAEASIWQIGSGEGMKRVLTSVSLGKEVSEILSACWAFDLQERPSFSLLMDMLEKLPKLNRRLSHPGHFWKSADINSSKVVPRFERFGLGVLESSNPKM
Nature of the test: biochemical. The note with it: read-out: % enzyme activity, 1 μM; Run 1, Run 2.

The next test deals with SBK1 (Homo sapiens, UniProt Q52WX2). The note with it: 1 μM; Run 1, Run 2.

Molecules are shown by their SMILES.

SBK1, sequence (Q52WX2 whole entry): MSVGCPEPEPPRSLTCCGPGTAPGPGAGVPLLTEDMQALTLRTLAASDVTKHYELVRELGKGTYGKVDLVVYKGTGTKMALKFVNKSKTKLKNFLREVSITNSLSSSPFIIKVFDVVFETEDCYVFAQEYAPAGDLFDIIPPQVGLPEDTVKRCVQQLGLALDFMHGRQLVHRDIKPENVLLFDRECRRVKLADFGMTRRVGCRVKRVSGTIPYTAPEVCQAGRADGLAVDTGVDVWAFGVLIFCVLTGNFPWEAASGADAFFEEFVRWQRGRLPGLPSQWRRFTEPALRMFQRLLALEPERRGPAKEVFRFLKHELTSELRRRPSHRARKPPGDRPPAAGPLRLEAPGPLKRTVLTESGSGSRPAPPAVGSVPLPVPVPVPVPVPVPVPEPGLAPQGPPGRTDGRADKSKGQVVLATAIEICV
DAPK2, sequence (Q9UIK4 whole entry): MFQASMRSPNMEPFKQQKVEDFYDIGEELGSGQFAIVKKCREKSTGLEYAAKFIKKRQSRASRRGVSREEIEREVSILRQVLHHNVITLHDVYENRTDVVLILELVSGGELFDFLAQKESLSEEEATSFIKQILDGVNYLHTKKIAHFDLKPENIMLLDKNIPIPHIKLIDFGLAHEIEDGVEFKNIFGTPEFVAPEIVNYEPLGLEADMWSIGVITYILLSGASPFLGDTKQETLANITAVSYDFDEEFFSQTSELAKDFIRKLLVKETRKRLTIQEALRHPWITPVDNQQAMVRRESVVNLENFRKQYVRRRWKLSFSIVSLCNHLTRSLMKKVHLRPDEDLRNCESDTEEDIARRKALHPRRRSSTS

For the compound `COc1cc(-c2cncc(-c3ccc(N4C[C@@H](C)N(C)[C@@H](C)C4)cc3)c2C)cc(F)c1C(N)=O` [Compound 26c, 2-Fluoro-6-methoxy-4-(4-methyl-5-(4-((3R,5S)-3,4,5-trimethylpiperazin-1-yl)phenyl)pyridin-3-yl)benzamide], the “% enzyme activity” value was determined as 92.38% at PKMYT1 and 101.08% at SBK1. The remaining activity at 1 µM at DAPK2 was determined as 100%; on BRSK2, 77.9%; on KSR1 it was 96.3%.

Take `COc1cc(-c2cncc(-c3ccc(N4CCN(C)CC4)cc3)c2C)cc(F)c1C(N)=O` [Compound 26a, 2-Fluoro-6-methoxy-4-(4-methyl-5-(4-(4-methylpiperazin-1-yl)phenyl)pyridin-3-yl)benzamide]: the “% enzyme activity” value on PKMYT1 is on record as 100.09%; on SBK1, 93.74%. Moreover, the remaining activity at 1 µM stood at 103% on DAPK2, 61.3% at BRSK2 and 94.5% at KSR1.

Values taken from publication PMC8213057, “Targeting ALK2: An Open Science Approach to Developing Therapeutics for the Treatment of Diffuse Intrinsic Pontine Glioma” (Journal of Medicinal Chemistry, 2020).
